# Measurements as given in patent publication US3968207A, “Method of controlling fleas and ticks on cats and dogs” (priority 1975, dated 1976).
# What was measured:
# [1] = system: Ctenocephalides felis; test: Flea control on dogs given oral doses (gelatin capsules), Table III; format: in vivo; set-up: key to Flea Control: 100% Control; PC: Partial Control; NC: No Control
# Protocol: Five groups of two mongrel dogs each were dosed daily with 0, 0.78, 3.1, 12.5 or 50 mg. O,O,O',O'-tetramethyl O,O'-thiodi-p-phenylene phosphorothioate/kg. body weight in gelatin capsules for 10 days. Medication began three days after infestations with 100 adult Ctenocephalides felis. […] Purina High Protein Dog Meal was fed once daily for the duration of the experiment. Water was provided ad libitum. The following table summarizes the results of the test.
# [2] = Toxicity (general statement); format: in vivo, dogs and cats; details: at concentrations many times that of the actual amounts employed
# [3] = system: Ctenocephalides felis; test: 2% powder for control of flea infestations on dogs; format: in vivo; details: 20 mg/kg 2% powder
# Protocol: An experiment was carried out to determine the activity of O,O,O',O'-tetramethyl O,O'-thiodi-p-phenylene phosphorothioate 2% powder for the control of Ctenocephalides felis infestations on dogs. A group of 40 dogs of mixed breeds were obtained from a licensed laboratory animal dealer and housed in individual cages. The 2% powder was formulated from a 25% dust concentrate containing […] O,O,O',O'-tetramethyl O,O'-thiodi-p-phenylene phosphorothioate, 24% celite 209 and 50% acidic kaolin. Talc was used to dilute the concentrate to 2% active ingredient. Each dog was infested with 100 1 day old adult C. felis 72 hours prior to treatment and reinfested on a weekly basis for 6 weeks beginning 7 days after treatment. Each dog was treated with 20 mg. actual drug per kg. body weight formulated as a 2% powder. Five or more dogs were treated with a blank powder and used as infested controls. Table XV summarizes average dead fleas in treated versus average dead fleas in control.
structure (smiles),measurement,setting,value
"COP(=S)(OC)Oc1ccc(Sc2ccc(OP(=S)(OC)OC)cc2)cc1 [O,O,O',O'-tetramethyl O,O'-thiodi-p-phenylene phosphorothioate]",flea activity,[1]; oral 0.78 mg/kg,no flea activity was observed
same,Flea Control,"[1]; oral 3.1 mg/kg daily, day 0",NC
same,Flea Control,"[1]; oral 3.1 mg/kg daily, day 1",NC
same,Flea Control,"[1]; oral 3.1 mg/kg daily, day 2",NC
same,Flea Control,"[1]; oral 3.1 mg/kg daily, day 3",PC
same,Flea Control,"[1]; oral 3.1 mg/kg daily, day 4",PC
same,Flea Control,"[1]; oral 3.1 mg/kg daily, day 7",100 (100% Control)
same,Flea Control,"[1]; oral 3.1 mg/kg, both dogs, after 7 days",complete control
same,Flea Control,"[1]; oral 12.5 mg/kg daily, day 0",NC
same,Flea Control,"[1]; oral 12.5 mg/kg daily, day 2",PC
same,Flea Control,"[1]; oral 12.5 mg/kg daily, day 3",PC
same,Flea Control,"[1]; oral 12.5 mg/kg daily, day 4",PC
same,Flea Control,"[1]; oral 12.5 mg/kg daily, day 7",100 (100% Control)
same,Flea Control,"[1]; oral 12.5 mg/kg, another dog, after 7 days",complete control
same,Flea Control,"[1]; oral 12.5 mg/kg, one dog, after 24 hours",complete control
same,Flea Control,"[1]; oral 50 mg/kg daily, day 0",NC
same,Flea Control,"[1]; oral 50 mg/kg daily, day 1",100 (100% Control)
same,Flea Control,"[1]; oral 50 mg/kg, after 24 hours",complete flea control
same,Flea Control,"[1]; oral .78 mg/kg daily, day 0",NC
same,Flea Control,"[1]; oral .78 mg/kg daily, day 1",NC
same,Flea Control,"[1]; oral .78 mg/kg daily, day 2",NC
same,Flea Control,"[1]; oral .78 mg/kg daily, day 3",NC
same,Flea Control,"[1]; oral .78 mg/kg daily, day 4",NC
same,Flea Control,"[1]; oral .78 mg/kg daily, day 7",NC
same,Flea Control,"[1]; oral .78 mg/kg daily, day 8",NC
same,toxicity,[2],substantially non-toxic
same,Percent of Dogs with Control,[3]; week 0,100%
same,Percent of Dogs with Control,[3]; week 1,100%
same,Percent of Dogs with Control,[3]; week 2,100%
same,Percent of Dogs with Control,[3]; week 3,100%
same,Percent of Dogs with Control,[3]; week 4,92.5%
same,Percent of Dogs with Control,[3]; week 5,80%
same,Percent of Dogs with Control,[3]; week 6,45%
same,Number of Dogs on Which Fleas were Controlled,"[3]; Combination of Test 1 & 2, week 0, of 40",40 dogs
same,Number of Dogs on Which Fleas were Controlled,"[3]; Combination of Test 1 & 2, week 1, of 40",40 dogs
same,Number of Dogs on Which Fleas were Controlled,"[3]; Combination of Test 1 & 2, week 2, of 40",40 dogs
same,Number of Dogs on Which Fleas were Controlled,"[3]; Combination of Test 1 & 2, week 3, of 40",40 dogs
same,Number of Dogs on Which Fleas were Controlled,"[3]; Combination of Test 1 & 2, week 4, of 40",37 dogs
same,Number of Dogs on Which Fleas were Controlled,"[3]; Combination of Test 1 & 2, week 5, of 40",32 dogs
same,Number of Dogs on Which Fleas were Controlled,"[3]; Combination of Test 1 & 2, week 6, of 40",18 dogs
same,Number of Dogs on Which Fleas were Controlled,"[3]; Experiment 1, week 0, of 20",20 dogs
same,Number of Dogs on Which Fleas were Controlled,"[3]; Experiment 1, week 1, of 20",20 dogs
same,Number of Dogs on Which Fleas were Controlled,"[3]; Experiment 1, week 2, of 20",20 dogs
same,Number of Dogs on Which Fleas were Controlled,"[3]; Experiment 1, week 3, of 20",20 dogs
same,Number of Dogs on Which Fleas were Controlled,"[3]; Experiment 1, week 4, of 20",17 dogs
same,Number of Dogs on Which Fleas were Controlled,"[3]; Experiment 1, week 5, of 20",14 dogs
